According to publication PMC8911181, “A Novel CDK4/6 and PARP Dual Inhibitor ZC-22 Effectively Suppresses Tumor Growth and Improves the Response to Cisplatin Treatment in Breast and Ovarian Cancer” (International Journal of Molecular Sciences, 2022):

Columns and labels:
[1] = test system: CDK4/6-mediated phosphorylation of Rb; assay: Western blot of p-Rb/Rb; format: cell-based, human; conditions: MDA-MB-231 (2 μM) and OVCAR5 (0.5 μM) cells, 24 h
Method: Cells were washed with PBS, collected with scraper, and then lysed in RIPA buffer containing 1× protease and phosphatase inhibitors for 30 min on ice. The supernatants were collected by centrifugation at full speed for 10 min at 4 °C and subjected to SDS-PAGE followed by immunoblotting as described before. Signals were detected using enhanced chemiluminescence (Millipore, Burlington, MA, USA) and captured by the G: BOX Chemi XRQ gel doc System (Syngene, Cambridge, UK).
(§1) Figure 3 ZC-22 inhibits CDK4/6 and PARP to induce cell-cycle arrest, DNA damage, and apoptosis in breast and ovarian cancer cells. (A,B) MDA-MB-231 cells were treated with 2 μM LY2835219 (LY-2) or ZC-22. […] The levels of CDK4/6 and p-Rb/Rb were determined by Western blot (A). Cell-cycle distribution was analyzed by flow cytometry (B). […] (D,E) Representative pictures (left) and quantification of percentage (right) of γH2A.X-positive cells in MDA-MB-231 cells treated with 2 μM OLA or ZC-22 for 24 h (D), or OVCAR5 cells treated with 0.5 μM OLA or ZC-22 for 24 h (E). Values are means ± SD, n = 3. * p < 0.05, ** p < 0.01, and *** p < 0.001 for comparisons with the DMSO-treated group. p value was calculated using an unpaired t-test. […] Values are means ± SD, n = 3. * p < 0.05, ** p < 0.01, and *** p < 0.001 vs. the DMSO-treated group. p value was calculated using an unpaired t-test. […]

γH2A.X = assay: Immunofluorescence staining of γH2A.X foci; format: cell-based, human; conditions: MDA-MB-231 (2 μM) and OVCAR5 (0.5 μM) cells; 24 h
Method: Immunofluorescence-staining of γH2A.X was performed as described before. Briefly, cells were seeded on cover glasses in 24-well plates, cultured for 24–48 h, and then treated with cisplatin alone or together with Olaparib or ZC-22 for 24 h. After washing with PBS, cells were fixed by 4% PFA, permeated with 0.5% Triton-X100 in PBS, washed thrice with 0.1% PBS-Tween (PBST), blocked with 3% BSA in PBST, and then incubated with anti-γH2A.X antibody overnight at 4 °C. […] At least 150 cells in three fields were counted for each repeat.
as §1, with “cells.” for “cells. (A,B) MDA-MB-231 cells were treated with 2 μM LY2835219 (LY-2) or ZC-22.”

`CCN1CCN(Cc2ccc(Nc3ncc(F)c(-c4cc(F)c5nc(C)n(C(C)C)c5c4)n3)nc2)CC1` [LY2835219, Abemaciclib, reference compound] was tested, and the “inhibitory activity on CDK4/6-mediated phosphorylation of Rb” value [1] was “equal inhibitory activity”.
In the case of `Cc1nc2c(F)cc(-c3nc(Nc4ccc(N5CCN(C(=O)c6cc(Cc7n[nH]c(=O)c8ccccc78)ccc6F)CC5)cn4)ncc3F)cc2n1C(C)C` [ZC-22, 4-(4-fluoro-3-(4-(6-((5-fluoro-4-(4-fluoro-1-isopropyl-2-methyl-1H-benzo[d]imidazole-6-yl)pyrimidin-2-yl)amino)pyridin-3-yl)piperazine-1-carbonyl)benzyl)phthalazin-1(2H)-one], the “formation of γH2A.X foci” value (γH2A.X) is reported as “notably induced formation of γH2A.X foci” and the “inhibitory activity on CDK4/6-mediated phosphorylation of Rb” value [1] is reported as “equal inhibitory activity”.
